“Also recorded” adds a separate entry of the source.
Key:
[1] = tested on: chronic constriction injury model of neuropathic pain in mice; assay: CCI-induced mechanical allodynia (von Frey test) after intrathecal injection; type: in vivo, mouse; conditions: 0.5 mM, 5 μl i.th.
Text: A chronic constriction injury (CCI) at the left sciatic nerve was induced in adult male mice. Inhalation anesthesia was induced with a constant level of isoflurane (2.0%) delivered through a nose cone. Under aseptic conditions, the left sciatic nerve at the middle thigh level was separated from the surrounding tissue and loosely tied with three nylon sutures (9-0 nonabsorbable-monofilament, S&T AG, Neuhausen, Switzerland). The distance between two adjacent ligatures was around 0.5 mm.
CCI-induced mechanical allodynia: mechanical sensitivity was assessed with the von Frey test using the frequency method. Two calibrated von Frey monofilaments (low force: 0.07 g and high force: 0.45 g) were used. Each von Frey filament was applied perpendicularly to the plantar side of each hind paw for approximately 1 sec; the stimulation was repeated 10 times to both hind paws. The occurrence of paw withdrawal in each of these 10 trials was expressed as a percent response frequency: paw withdrawal frequency (PWF)=(number of paw withdrawals/10 trials)×100%.
BAM 8-22 was purchased from Tocris (Bristol, UK) and was suspended in 0.9% saline. The drug was injected intrathecally under brief isoflurane (1.5%) anesthesia to reduce stress. […]

[2] = tested on: WDR neurons in the dorsal horn of the spinal cord; assay: Electrophysiological recording of WDR neurons, spinal topical application; type: in vivo, mouse; conditions: for A-latency / A-threshold / C-latency / C-threshold: post-BAM 8-22
Procedure: The electrophysiological recording of WDR neurons in the dorsal horn of the spinal cord was performed by an experimenter blinded to the genotype as previously described in Guan et al., 2006, J. Neurosci., 26:4298-4307. Mice were paralyzed with pancuronium bromide (0.15 mg/kg, i.p.) during neurophysiological recording. Throughout the experiment, anesthesia was maintained with a constant level of isoflurane (1.5%) carried in med-air. A spinal unit with a cutaneous receptive field located in the plantar area of the hind paw was located by applying mechanical stimuli. WDR neurons were defined as those that responded to both innocuous and noxious mechanical stimuli and that had increasing rates of response to increasing intensities of stimuli. Electrical stimuli were applied through a pair of fine needles inserted subcutaneously across the central plantar area of the hind paw 0.3-0.4 cm apart. Extracellular recordings of individual neurons were obtained by using fine-tip (<1.0 μm) paralyn-coated tungsten micro-electrodes ([…] at 1 kHz).
BAM 8-22 or vehicle control was applied directly to the exposed surface of the spinal cord at the recording segment in a volume of 30-50 μl following pre-drug tests. The effects of BAM 8-22 on the spontaneous activity of WDR neurons were examined within 0-10 min after application. The evoked neuronal responses were recorded 10-30 minutes after drug application. Only one neuron in each animal was used to test the drug effects. The post-drug responses were compared with the pre-drug responses, allowing each neuron to act as its own control.
The number of action potentials (APs) evoked by graded electrical stimuli was compared between two genotypes, using a two-way mixed-model analysis of variance (ANOVA) with Fisher's protected least significant difference (LSD) post-hoc test. Student's t-test was used to compare the recording depth, activation threshold and latency of the first A-fiber-mediated and the first C-fiber-mediated responses, respectively, between the two groups. For wind-up, the raw data were the number of APs in the C-component evoked by each stimulus in a train of repetitive electrical stimulation. Since the number of APs in the C-component varies among WDR neurons, the raw data for each neuron were normalized to the first response in each trial (input) and then averaged. A two-way mixed-model ANOVA was used to compare wind-up and the averaged C-component responses to the last 10 stimuli (7th-16th) of the trial between the two genotypes and between pre- and post-drug conditions. Data are presented as mean±standard error of mean (S.E.M). Statistical comparisons were made using unpaired Student's t-test and differences were considered significant at p<0.05.

[3] = target: T1, rat MrgprC (Rattus norvegicus, UniProt Q8R4G1); conditions: Han et al, 2002, Lembo et al.; cited from earlier work
T1 sequence (Q8R4G1 1-323): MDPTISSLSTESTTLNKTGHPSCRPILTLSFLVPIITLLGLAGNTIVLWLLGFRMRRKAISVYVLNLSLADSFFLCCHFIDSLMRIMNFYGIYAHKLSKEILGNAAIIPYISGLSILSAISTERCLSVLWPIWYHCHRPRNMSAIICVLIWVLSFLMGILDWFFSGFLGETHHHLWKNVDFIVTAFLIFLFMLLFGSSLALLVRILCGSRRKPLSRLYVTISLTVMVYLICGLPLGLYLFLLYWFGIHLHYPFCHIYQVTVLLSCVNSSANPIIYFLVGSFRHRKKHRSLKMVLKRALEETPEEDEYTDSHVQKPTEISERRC

[4] = Mrgpr-clusterΔ−/− mice, 0.1 mM, 30-50 μl

BAM 8-22
CCI-induced mechanical pain hypersensitivity (paw withdrawal frequency), ipsilateral hind paw ([1]; WT mice, low-force 0.07 g and high-force 0.45 g, 14-18 days post-injury, after 30 min): significantly attenuated; also recorded: significantly reduced | paw withdrawal responses (PWF) of the contralateral, uninjured side ([1]; either group): did not significantly change; also recorded: did not significantly reduce | input value and C-component responses of WDR neurons to 0.5 Hz stimulation ([2]; Mrgpr-clusterΔ−/− mice): significantly increased | input value and C-component responses of WDR neurons to repetitive (0.5 and 1.0 Hz) stimulation [2, 4]: significantly increased | wind-up levels (normalized to the input value) [2, 4]: not increased | C-component responses of WDR neurons to graded electrical stimulation ([2]; Mrgpr-clusterΔ−/− mice, n=17, 0.1 mM, intensities >1.0 mA (2.0-5.0 mA)): significantly increased | A-latency ([2]; Mrgpr-clusterΔ−/−): 12.9 ± 0.6 ms | A-threshold ([2]; Mrgpr-clusterΔ−/−): 0.19 ± 0.03 mA | C-latency ([2]; Mrgpr-clusterΔ−/−): 118 ± 4 ms | C-threshold ([2]; Mrgpr-clusterΔ−/−): 1.9 ± 0.6 mA | windup response after saline wash-out ([2]; WT WDR neuron, 0.5 Hz, 10-30 min after saline wash-out): partially recovered | wind-up / C-component responses to 0.5 Hz and 1.0 Hz stimulation ([2]; WT mice, n=25, 0.1 mM, 30-50 μl): significantly attenuated; also recorded: inhibited | windup of WDR neurons to 0.5 Hz stimulation ([2]; WT mice, n=25, spinal superfusion, 10-30 min after application): significantly attenuated; also recorded: significantly decreased; also recorded: substantially attenuated | A-latency ([2]; Wild-type): 12.1 ± 0.7 ms | A-threshold ([2]; Wild-type): 0.17 ± 0.03 mA | C-latency ([2]; Wild-type): 115 ± 4 ms | C-threshold ([2]; Wild-type): 1.7 ± 0.4 mA | threshold and latency of the first C-fiber-mediated action potential ([2]; either WT or Mrgpr-clusterΔ−/− mice): unaffected | activation of rat MrgprC [3]: specifically activates

Source: patent US20110150769A1, “IDENTIFICATION AND USE OF COMPOUNDS FOR TREATING PERSISTENT PAIN” (priority 2009, published 2011)
